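Assay format: 96-well plates, 48-hour exposure. Abbreviation: GI50, concentration required for 50% inhibition of growth.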 Activity calls are given as the source filed them. Rule as the data show it: active = GI50 up to about 1.1 µM and inactive = higher.
Legend:
Test in all cases: NCI tumour cell line growth inhibition, 48 h
786-0 = test system: 786-0
A498 = test system: A498
A549 = test system: A549
ACHN = test system: ACHN
BT-549 = test system: BT-549
CAKI-1 = test system: CAKI-1
COLO 205 = test system: COLO 205
DU-145 = test system: DU-145
EKVX = test system: EKVX
HCC 2998 = test system: HCC 2998
HCT-116 = test system: HCT-116
HCT-15 = test system: HCT-15
HL-60 = test system: HL-60
HOP-62 = test system: HOP-62
HOP-92 = test system: HOP-92
HT-29 = test system: HT-29
Hs-578T = test system: Hs-578T
IGROV-1 = test system: IGROV-1
K562 = test system: K562
KM12 = test system: KM12
M14 = test system: M14
MCF7 = test system: MCF7
MDA-MB-231 = test system: MDA-MB-231
MDA-MB-435 = test system: MDA-MB-435
MDA-N = test system: MDA-N
MOLT-4 = test system: MOLT-4
Malme-3M = test system: Malme-3M
NCI-H226 = test system: NCI-H226
NCI-H23 = test system: NCI-H23
NCI-H460 = test system: NCI-H460
NCI/ADR-RES = test system: NCI/ADR-RES
OVCAR-3 = test system: OVCAR-3
OVCAR-4 = test system: OVCAR-4
OVCAR-5 = test system: OVCAR-5
OVCAR-8 = test system: OVCAR-8
PC-3 = test system: PC-3
RPMI-8226 = test system: RPMI-8226
SF-268 = test system: SF-268
SF-295 = test system: SF-295
SF-539 = test system: SF-539
SK-MEL-28 = test system: SK-MEL-28
SK-MEL-2 = test system: SK-MEL-2
SK-OV-3 = test system: SK-OV-3
SN12C = test system: SN12C
SNB-19 = test system: SNB-19
SNB-75 = test system: SNB-75
SR = test system: SR
SW-620 = test system: SW-620
T47D = test system: T47D
TK-10 = test system: TK-10
U-251 = test system: U-251
UO-31 = test system: UO-31
CCRF-CEM = test system: CCRF-CEM
LOX IMVI = test system: LOX IMVI
NCI-H522 = test system: NCI-H522
RXF 393 = test system: RXF 393
SK-MEL-5 = test system: SK-MEL-5
UACC-257 = test system: UACC-257
UACC-62 = test system: UACC-62

Cc1ccc(C2(O)CS/C(=N\C34CC5CC(CC(C5)C3)C4)N2C(P(=O)(O)O)P(=O)(O)O)cc1 (centres undefined)
GI50 (786-0): > 100 µM (inactive)
GI50 (A498): 82.8 µM (inactive)
GI50 (A549): 76.7 µM (inactive)
GI50 (ACHN): > 100 µM (inactive)
GI50 (BT-549): > 100 µM (inactive)
GI50 (CAKI-1): > 100 µM (inactive)
GI50 (COLO 205): > 100 µM (inactive)
GI50 (DU-145): > 100 µM (inactive)
GI50 (EKVX): > 100 µM (inactive)
GI50 (HCC 2998): 68.1 µM (inactive)
GI50 (HCT-116): 37.1 µM (inactive)
GI50 (HCT-15): > 100 µM
GI50 (HL-60): 37.7 µM (inactive)
GI50 (HOP-62): 49.1 µM (inactive)
GI50 (HOP-92): > 100 µM (inactive)
GI50 (HT-29): > 100 µM (inactive)
GI50 (Hs-578T): 73.1 µM (inactive)
GI50 (IGROV-1): > 100 µM (inactive)
GI50 (K562): 42.7 µM (inactive)
GI50 (KM12): > 100 µM (inactive)
GI50 (M14): > 100 µM (inactive)
GI50 (MCF7): 65.2 µM (inactive)
GI50 (MDA-MB-231): 56.6 µM (inactive)
GI50 (MDA-MB-435): > 100 µM (inactive)
GI50 (MDA-N): 42 µM (inactive)
GI50 (MOLT-4): 37.9 µM (inactive)
GI50 (Malme-3M): 63.7 µM (inactive)
GI50 (NCI-H226): > 100 µM (inactive)
GI50 (NCI-H23): > 100 µM (inactive)
GI50 (NCI-H460): 41.3 µM (inactive)
GI50 (NCI/ADR-RES): 24.2 µM (inactive)
GI50 (OVCAR-3): > 100 µM (inactive)
GI50 (OVCAR-4): > 100 µM (inactive)
GI50 (OVCAR-5): 82.8 µM (inactive)
GI50 (OVCAR-8): 86.7 µM (inactive)
GI50 (PC-3): 79.3 µM (inactive)
GI50 (RPMI-8226): > 100 µM (inactive)
GI50 (SF-268): > 100 µM (inactive)
GI50 (SF-295): 44.4 µM (inactive)
GI50 (SF-539): > 100 µM (inactive)
GI50 (SK-MEL-28): > 100 µM (inactive)
GI50 (SK-MEL-2): 27.5 µM (inactive)
GI50 (SK-OV-3): 72.8 µM (inactive)
GI50 (SN12C): 89.3 µM (inactive)
GI50 (SNB-19): 82.2 µM (inactive)
GI50 (SNB-75): 38.6 µM (inactive)
GI50 (SR): 29.2 µM (inactive)
GI50 (SW-620): > 100 µM (inactive)
GI50 (T47D): 80.2 µM (inactive)
GI50 (TK-10): > 100 µM (inactive)
GI50 (U-251): 38.6 µM (inactive)
GI50 (UO-31): > 100 µM (inactive)

C=CCc1cc(-c2n[nH]c(=S)[nH]2)ccc1N/N=N/c1ccc(C(=O)O)cc1
GI50 (786-0): > 100 µM (inactive)
GI50 (A498): > 100 µM (inactive)
GI50 (A549): > 100 µM (inactive)
GI50 (ACHN): 71.3 µM (inactive)
GI50 (BT-549): 27.2 µM (inactive)
GI50 (CAKI-1): > 100 µM (inactive)
GI50 (CCRF-CEM): 54 µM (inactive)
GI50 (COLO 205): 22.6 µM (inactive)
GI50 (DU-145): > 100 µM (inactive)
GI50 (EKVX): > 100 µM (inactive)
GI50 (HCT-116): > 100 µM (inactive)
GI50 (HCT-15): > 100 µM
GI50 (HL-60): 30.8 µM (inactive)
GI50 (HOP-62): 81.3 µM (inactive)
GI50 (HOP-92): > 100 µM (inactive)
GI50 (HT-29): > 100 µM (inactive)
GI50 (Hs-578T): 44.6 µM (inactive)
GI50 (IGROV-1): 83 µM (inactive)
GI50 (K562): 49 µM (inactive)
GI50 (KM12): 40.2 µM (inactive)
GI50 (LOX IMVI): 74.5 µM (inactive)
GI50 (M14): > 100 µM (inactive)
GI50 (MCF7): 59.4 µM (inactive)
GI50 (MDA-MB-231): > 100 µM (inactive)
GI50 (MDA-MB-435): 44.8 µM (inactive)
GI50 (MDA-N): 66.2 µM (inactive)
GI50 (MOLT-4): 32.4 µM (inactive)
GI50 (Malme-3M): 51.6 µM (inactive)
GI50 (NCI-H226): 42.4 µM (inactive)
GI50 (NCI-H23): 48.1 µM (inactive)
GI50 (NCI-H522): 34.1 µM (inactive)
GI50 (NCI/ADR-RES): > 100 µM (inactive)
GI50 (OVCAR-3): 56 µM (inactive)
GI50 (OVCAR-4): 44.7 µM (inactive)
GI50 (OVCAR-5): > 100 µM (inactive)
GI50 (OVCAR-8): 38.5 µM (inactive)
GI50 (PC-3): > 100 µM (inactive)
GI50 (RPMI-8226): 38.5 µM (inactive)
GI50 (RXF 393): 89.5 µM (inactive)
GI50 (SF-268): 49.7 µM (inactive)
GI50 (SF-295): 52.4 µM (inactive)
GI50 (SK-MEL-28): > 100 µM (inactive)
GI50 (SK-MEL-2): 58.1 µM (inactive)
GI50 (SK-MEL-5): 16.7 µM (inactive)
GI50 (SK-OV-3): > 100 µM (inactive)
GI50 (SN12C): > 100 µM (inactive)
GI50 (SNB-19): > 100 µM (inactive)
GI50 (SNB-75): > 100 µM (inactive)
GI50 (SR): 45.9 µM (inactive)
GI50 (SW-620): > 100 µM (inactive)
GI50 (T47D): 24 µM (inactive)
GI50 (TK-10): > 100 µM (inactive)
GI50 (U-251): > 100 µM (inactive)
GI50 (UACC-257): 76.9 µM (inactive)
GI50 (UO-31): > 100 µM (inactive)

COc1ccc2[nH]c(S(=O)(=O)N3CC(CCl)c4ccc(N)cc43)cc2c1 (centres undefined)
GI50 (786-0): 0.0771 µM (active)
GI50 (A498): 11.2 µM (inactive)
GI50 (A549): 0.146 µM (active)
GI50 (ACHN): 8.91 µM (inactive)
GI50 (BT-549): 6.55 µM (inactive)
GI50 (CAKI-1): 0.0254 µM (active)
GI50 (CCRF-CEM): 0.362 µM (active)
GI50 (COLO 205): 4.42 µM (inactive)
GI50 (DU-145): 0.429 µM (active)
GI50 (EKVX): 1.85 µM (inactive)
GI50 (HCC 2998): 2.94 µM (inactive)
GI50 (HCT-116): 0.0269 µM (active)
GI50 (HCT-15): < 0.0254 µM
GI50 (HL-60): < 0.01 µM (active)
GI50 (HOP-62): 0.475 µM (active)
GI50 (HOP-92): 13.7 µM (inactive)
GI50 (HT-29): 1.65 µM (inactive)
GI50 (Hs-578T): 0.0953 µM (active)
GI50 (IGROV-1): 0.0547 µM (active)
GI50 (K562): < 0.01 µM (active)
GI50 (KM12): < 0.01 µM (active)
GI50 (LOX IMVI): < 0.0229 µM (active)
GI50 (M14): 0.0568 µM (active)
GI50 (MCF7): 0.0184 µM (active)
GI50 (MDA-MB-231): 0.239 µM (active)
GI50 (MDA-MB-435): < 0.01 µM (active)
GI50 (MDA-N): < 0.01 µM (active)
GI50 (MOLT-4): 0.0826 µM (active)
GI50 (Malme-3M): 0.0984 µM (active)
GI50 (NCI-H226): 0.252 µM (active)
GI50 (NCI-H460): < 0.0189 µM (active)
GI50 (NCI-H522): < 0.01 µM (active)
GI50 (NCI/ADR-RES): 0.0624 µM (active)
GI50 (OVCAR-3): 0.022 µM (active)
GI50 (OVCAR-4): 2.16 µM (inactive)
GI50 (OVCAR-5): 10 µM (inactive)
GI50 (OVCAR-8): 0.266 µM (active)
GI50 (PC-3): 0.0973 µM (active)
GI50 (RPMI-8226): 0.103 µM (active)
GI50 (RXF 393): 0.675 µM (active)
GI50 (SF-268): 0.0685 µM (active)
GI50 (SF-295): 0.0775 µM (active)
GI50 (SF-539): 0.0478 µM (active)
GI50 (SK-MEL-28): 13 µM (inactive)
GI50 (SK-MEL-5): < 0.0157 µM (active)
GI50 (SK-OV-3): 0.208 µM (active)
GI50 (SN12C): 0.32 µM (active)
GI50 (SNB-19): 8.22 µM (inactive)
GI50 (SNB-75): 0.0718 µM (active)
GI50 (SR): < 0.01 µM (active)
GI50 (SW-620): 0.0358 µM (active)
GI50 (T47D): 34.8 µM (inactive)
GI50 (TK-10): 20.6 µM (inactive)
GI50 (U-251): 0.4 µM (active)
GI50 (UACC-257): 4.14 µM (inactive)
GI50 (UACC-62): 0.0773 µM (active)
GI50 (UO-31): 0.0403 µM (active)

From ChEMBL document CHEMBL1201862, “PubChem BioAssay data set” (2004)
